Laboratory results taken from US9394297B2, “Amides as pim inhibitors” (AMGEN INC., priority 2012, dated 2016).
Like-named read-outs stand apart in the source and are kept apart here.

Key:
[1] = target: Pim-1 (Homo sapiens (Human), UniProt P11309); assay: Pim-Mn enzyme assay (HTRF, 384-well), Pim-1; type: biochemical; conditions: read-out: Pim-1-Mn IC50 IP
[2] = tested on: KMS-12-BM cell lines; assay: KMS12 #2 flow cytometry assay (phospho-BAD Ser112); type: cell-based; conditions: Homo sapiens, 110 min; KMS-12-BM cells, pBAD Ser112 by flow cytometry, 110 min with compound; read-out: KMS-12-Flow IC50 IP
[3] = target: Pim-2 (Homo sapiens (Human), UniProt Q9P1W9); assay: Pim-Mn enzyme assay (HTRF, 384-well), Pim-2; type: biochemical; conditions: read-out: Pim-2-Mn IC50 IP
Pim-2, sequence (Q9P1W9 whole entry): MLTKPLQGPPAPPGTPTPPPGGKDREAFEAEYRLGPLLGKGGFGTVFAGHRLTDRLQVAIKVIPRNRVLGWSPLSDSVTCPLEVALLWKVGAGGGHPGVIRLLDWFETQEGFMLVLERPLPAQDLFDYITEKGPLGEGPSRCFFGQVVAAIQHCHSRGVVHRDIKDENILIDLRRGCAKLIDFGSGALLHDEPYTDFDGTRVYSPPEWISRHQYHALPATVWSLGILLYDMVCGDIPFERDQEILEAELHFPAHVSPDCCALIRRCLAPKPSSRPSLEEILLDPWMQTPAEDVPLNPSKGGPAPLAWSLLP

[4] = Pim-1 enzyme 5 pM, ATP 1.5 μM, BAD (S112) 0.5 μM, HTRF, 22-point curve
[5] = Pim-2 enzyme 0.5 pM, ATP 1.5 μM, BAD (S112) 0.5 μM, HTRF, 22-point curve

Pim-1, sequence (P11309 whole entry): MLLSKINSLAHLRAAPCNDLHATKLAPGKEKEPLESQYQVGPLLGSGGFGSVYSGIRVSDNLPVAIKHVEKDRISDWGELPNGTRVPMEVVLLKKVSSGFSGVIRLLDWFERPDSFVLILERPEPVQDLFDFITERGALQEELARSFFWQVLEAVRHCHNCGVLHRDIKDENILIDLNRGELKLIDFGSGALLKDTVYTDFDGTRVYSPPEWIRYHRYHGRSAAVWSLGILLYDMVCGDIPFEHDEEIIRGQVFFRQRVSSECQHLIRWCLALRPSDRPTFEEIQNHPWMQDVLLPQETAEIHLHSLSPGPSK

Row | Compound | IC50 [1, 4] [nM] | IC50 [2] [nM] | IC50 [3, 5] [nM] | IC50 [3] [nM] | IC50 [1] [nM]
1 | C#Cc1nc2cccc(-c3cc4c([nH]3)CCNC4=O)c2nc1NC(C)(C)C [Example 307, 2-(3-(tert-butylamino)-2-ethynylquinoxalin-5-yl)-6,7-dihydro-1H-pyrrolo[3,2-c]pyridin-4(5H)-one] | 1.63 | 590 | 1.45 | – | –
2 | Cc1nc2ccc(F)c(-c3cc4c([nH]3)C3(CC3)NC4=O)c2nc1NC(C)C [Example 330, 2′-(6-Fluoro-3-(isopropylamino)-2-methylquinoxalin-5-yl)-1′H-spiro[cyclopropane-1,6′-pyrrolo[3,4-b]pyrrol]-4′(5′H)-one] | 0.724 | 85.6 | 1.17 | – | –
3 | Cc1nc2cccc(-c3cc4c([nH]3)CCNC4=O)c2nc1NC(C)c1cnccn1 (stereo not drawn) [Example 322, 2-(2-methyl-3-((1-(pyrazin-2-yl)ethyl)amino)quinoxalin-5-yl)-6,7-dihydro-1H-pyrrolo[3,2-c]pyridin-4(5H)-one] | 94.6 | > 40000 | 163 | – | –
4 | Cc1nc2cccc(-c3cc4c([nH]3)CNC4=O)c2nc1NC(C)(C)C [Example 334, 2-(3-(tert-Butylamino)-2-methyl-5-quinoxalinyl)-5,6-dihydropyrrolo[3,4-b]pyrrol-4(1H)-one] | 1.18 | 43.8 | 0.882 | – | –
5 | CC(C)(C)Nc1nc2c(-c3cc4c([nH]3)CCNC4=O)cccc2nc1CO [Example 306, 2-(3-(tert-butylamino)-2-(hydroxymethyl)quinoxalin-5-yl)-6,7-dihydro-1H-pyrrolo[3,2-c]pyridin-4(5H)-one] | 2.12 | 558 | 2.26 | – | –
6 | Cc1nc2cccc(-c3cc4c([nH]3)CCNC4=O)c2nc1NC(C)(C)CN [Example 341, 2-(3-((2-amino-1,1-dimethylethyl)amino)-2-methyl-5-quinoxalinyl)-1,5,6,7-tetrahydro-4H-pyrrolo[3,2-c]pyridin-4-one] | 6.85 | 7830 | – | 10.7 | –
7 | CC(C)Nc1nc2c(-c3cc4c([nH]3)CCNC4=O)cccc2c(=O)n1-c1ccccn1 [Example 415, 2-((1-methylethyl)amino)-8-(4-oxo-4,5,6,7-tetrahydro-1H-pyrrolo[3,2-c]pyridin-2-yl)-3-(2-pyridinyl)-4(3H)-quinazolinone] | 10.9 | 5860 | 29.4 | – | –
8 | COCCOCCn1c(NC(C)(C)C)nc2c(-c3cc4c([nH]3)[C@@H](C)NC4=O)cccc2c1=O [Example 474, 2-(tert-butylamino)-3-(2-(2-methoxyethoxyl)ethyl)-8-((6R)-6-methyl-4-oxo-1,4,5,6-tetrahydropyrrolo[3,4-b]pyrrol-2-yl)-4(3H)-quinazolinone] | 1.34 | 121 | 0.917 | – | –
9 | Cc1nc2cccc(-c3cc4c([nH]3)C(COCc3ccccc3)NC4=O)c2nc1NC(C)(C)C (racemic) [Example 468, (6R)-6-((benzyloxy)methyl)-2-(3-(tert-butylamino)-2-methyl-5-quinoxalinyl)-5,6-dihydropyrrolo[3,4-b]pyrrol-4(1H)-one and (6S)-6-((benzyloxy)methyl)-2-(3-(tert-butylamino)-2-methyl-5-quinoxalinyl)-5,6-dihydropyrrolo[3,4-b]pyrrol-4(1H)-one] | 5.4 | 3390 | 7.94 | – | –
10 | Cc1nc2cccc(-c3cc4c([nH]3)CCCC4=O)c2nc1NC(C)(C)C [Example 303, 2-(3-(tert-butylamino)-2-methylquinoxalin-5-yl)-6,7-dihydro-1H-indol-4(5H)-one] | 0.839 | 572 | 1.47 | – | –
11 | CC(C)Nc1nc2c(-c3cc4c([nH]3)CCNC4=O)cccc2c(=O)n1-c1ccccc1 [Example 402, 2-((1-methylethyl)amino)-8-(4-oxo-4,5,6,7-tetrahydro-1H-pyrrolo[3,2-c]pyridin-2-yl)-3-phenyl-4(3H)-quinazolinone] | 5.91 | 590 | 5.87 | – | –
12 | Cc1nc2cccc(-c3cc(C(N)=O)c(C4CC4)[nH]3)c2nc1NC(C)(C)C [Example 418, 5-(3-(tert-butylamino)-2-methylquinoxalin-5-yl)-2-cyclopropyl-1H-pyrrole-3-carboxamide] | 3.52 | 3150 | 7.79 | – | –
13 | CC(C)(C)Nc1nc2c(-c3cc4c([nH]3)CCNC4=O)cccc2nc1N1CCC1 [Example 347, 2-(2-(1-azetidinyl)-3-(tert-butylamino)-5-quinoxalinyl)-1,5,6,7-tetrahydro-4H-pyrrolo[3,2-c]pyridin-4-one] | – | 3660 | – | 10.5 | 4.55
14 | Cc1nc2ccc(F)c(-c3cc4c([nH]3)[C@H]([C@H](C)O)NC4=O)c2nc1NC1CC1 [Example 354, (R)-2-(3-(cyclopropylamino)-6-fluoro-2-methylquinoxalin-5-yl)-6-((S)-1-hydroxyethyl)-5,6-dihydropyrrolo[3,4-b]pyrrol-4(1H)-one] | 7.08 | 2310 | 16.4 | – | –
15 | COCCn1c(NC(C)(C)C)nc2c(-c3cc4c([nH]3)[C@@H](C)NC4=O)cccc2c1=O [Example 459, 2-(tert-butylamino)-3-(2-methoxyethyl)-8-((6R)-6-methyl-4-oxo-1,4,5,6-tetrahydropyrrolo[3,4-b]pyrrol-2-yl)-4(3H)-quinazolinone] | 0.199 | 76 | 0.193 | – | –
16 | CCOc1cnc2cccc(-c3cc4c([nH]3)CCNC4=O)c2n1 [Example 337, 2-(3-ethoxy-5-quinoxalinyl)-1,5,6,7-tetrahydro-4H-pyrrolo[3,2-c]pyridin-4-one] | 71.9 | 6920 | 54.6 | – | –
17 | Cc1nc2cccc(-c3cc4c([nH]3)CCNC4=O)c2nc1-c1ccccc1F [Example 428, 2-(3-(2-Fluorophenyl)-2-methylquinoxalin-5-yl)-6,7-dihydro-1H-pyrrolo[3,2-c]pyridin-4(5H)-one] | 39.9 | > 40000 | 47.4 | – | –
18 | Cc1nc2cccc(-c3cc4c([nH]3)CCNC4=O)c2nc1NC(C)(C)CNCCS(C)(=O)=O [Example 342, 2-(3-((1,1-dimethyl-2-((2-(methylsulfonyl)ethyl)amino)ethyl)amino)-2-methyl-5-quinoxalinyl)-1,5,6,7-tetrahydro-4H-pyrrolo[3,2-c]pyridin-4-one] | 28.1 | 11500 | 20.4 | – | –
19 | Cc1nc2cccc(-c3cc4n(c3)C(=O)NC4)c2nc1NC(C)(C)C [Example 421, 6-(3-(tert-butylamino)-2-methylquinoxalin-5-yl)-1H-pyrrolo[1,2-c]imidazol-3(2H)-one] | 86 | 21200 | 189 | – | –
20 | Cc1nc2ccc(F)c(-c3cc4c([nH]3)[C@@H](C)NC4=O)c2nc1NC1(C)CC1 [Example 379, (R)-2-(6-fluoro-2-methyl-3-((1-methylcyclopropyl)amino)quinoxalin-5-yl)-6-methyl-5,6-dihydropyrrolo[3,4-b]pyrrol-4(1H)-one] | 0.0376 | 11.3 | 0.0484 | – | –
21 | CC(C)(C)Nc1nc2c(-c3cc4c([nH]3)CCNC4=O)cccc2c(=O)n1-c1cccnc1 [Example 404, 2-(tert-butylamino)-8-(4-oxo-4,5,6,7-tetrahydro-1H-pyrrolo[3,2-c]pyridin-2-yl)-3-(3-pyridinyl)-4(3H)-quinazolinone] | 1.5 | 659 | 2.6 | – | –
22 | CCc1nc2cccc(-c3cc4c([nH]3)CCNC4=O)c2nc1NC(C)(C)C [Example 312, 2-(3-(tert-butylamino)-2-ethylquinoxalin-5-yl)-6,7-dihydro-1H-pyrrolo[3,2-c]pyridin-4(5H)-one] | 0.271 | 123 | 0.195 | – | –
23 | C[C@H]1NC(=O)c2cc(-c3cccc4c(=O)n(C)c(OC5(C)CC5)nc34)[nH]c21 [Example 460, 3-methyl-2-((1-methylcyclopropyl)oxy)-8-((6R)-6-methyl-4-oxo-1,4,5,6-tetrahydropyrrolo[3,4-b]pyrrol-2-yl)-4(3H)-quinazolinone] | 0.554 | 94 | 1.01 | – | –
24 | Cc1nc2cccc(-c3cc4c([nH]3)[C@@H](C)NC4=O)c2nc1NC(C)(C)CO [Example 302, (6R)-2-(3-((2-hydroxy-1,1-dimethylethyl)amino)-2-methyl-5-quinoxalinyl)-6-methyl-5,6-dihydropyrrolo[3,4-b]pyrrol-4(1H)-one] | – | 71.2 | – | 1.45 | 1.84
25 | Cc1nc2cccc(-c3cc4c([nH]3)[C@@H](C)NC4=O)c2nc1O[C@H](C)C(F)(F)F [Example 453, (6R)-6-methyl-2-(2-methyl-3-((1R)-2,2,2-trifluoro-1-methylethoxy)-5-quinoxalinyl)-5,6-dihydropyrrolo[3,4-b]pyrrol-4(1H)-one] | 37.5 | > 40000 | 258 | – | –
26 | Cc1nc2cccc(-c3cc4c(=O)[nH]nc(C)c4[nH]3)c2nc1NC(C)(C)C [Example 416, 2-(3-(tert-butylamino)-2-methylquinoxalin-5-yl)-7-methyl-1H-pyrrolo[2,3-d]pyridazin-4(5H)-one] | – | 2950 | – | 15.8 | 7.63
27 | Cc1nc2cccc(-c3cc4c([nH]3)CNC4=O)c2nc1NCC(F)(F)F [Example 301, 2-(2-methyl-3-((2,2,2-trifluoroethyl)amino)-5-quinoxalinyl)-5,6-dihydropyrrolo[3,4-b]pyrrol-4(1H)-one] | 1.25 | 341 | 1.91 | – | –
28 | Cc1nccn1-c1cnc2cccc(-c3cc4c([nH]3)CCNC4=O)c2n1 [Example 320] | 176 | > 40000 | 272 | – | –
